The values that follow come from patent publication US20100267561A1, “HERBICIDAL PYRIDAZINONE DERIVATIVES” (priority 2007, published 2010).

Test [1] relates to blackgrass (Alopecurus myosuroides). Description: Test A pre-/postemergence plant response. The class given is in vivo. An outline of the steps: (§1)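 Scores reflect visual plant injury relative to untreated controls on a 0–100 scale, recorded approximately 10 days after simultaneous preemergence soil spraying and postemergence spraying of one- to two-leaf seedlings grown in loam–sand.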

For test [2], the system named is canarygrass (Phalaris minor). Description: Test A pre-/postemergence plant response. It counts as in vivo. An outline of the steps:
as §1

[3] abbreviates: Postemergence, 31 g ai/ha, 0 to 100 scale (0 no effect, 100 complete control).
Where [4] appears, read: Postemergence, 125 g ai/ha, 0 to 100 scale, 0 no effect, 100 complete control.
[5] abbreviates: Preemergence, 31 g ai/ha, 0 to 100 scale, 0 is no effect, 100 is complete control.
Where [6] appears, read: Preemergence, 125 g ai/ha, 0 to 100 scale (0 no effect, 100 complete control).

Take `COCc1cc(-c2ccc(Br)cc2)nn1-c1c(O)cnn(C)c1=O` [Compound 68]: the “Plant response rating, Blackgrass” value worked out at 0 in test [1] (setting [3]), 80 in test [1] (setting [4]), 0 in test [1] (setting [5]) and 50 in test [1] (setting [6]). Moreover, the “Plant response rating, Canarygrass” value is listed as 0 in test [2] (setting [3]), 40 in test [2] (setting [4]), 0 in test [2] (setting [5]) and 20 in test [2] (setting [6]).

For the compound `Cc1cc(-c2ccc(Cl)cc2)nn1-c1c(OC(=S)N(C)C)cnn(C)c1=O` [Compound 69], the “Plant response rating, Blackgrass” value in test [1] (setting [3]) came to 10; in test [1] (setting [4]), 60; in test [1] (setting [5]), 20; in test [1] (setting [6]), 40. For the same compound, the “Plant response rating, Canarygrass” value worked out at 0 in test [2] (setting [3]), 80 in test [2] (setting [4]) and 80 in test [2] (setting [6]).

For `Cc1nn(C)c(=O)c(-n2nc(-c3ccc(C(F)(F)F)cc3)cc2C)c1O` [Compound 75, 5-hydroxy-2,6-dimethyl-4-[5-methyl-3-[4-(trifluoromethyl)phenyl]-1H-pyrazol-1-yl]-3(2H)-pyridazinone], the “Plant response rating, Blackgrass” value worked out at 40 in test [1] (setting [3]), 90 in test [1] (setting [4]), 40 in test [1] (setting [5]) and 80 in test [1] (setting [6]). In addition, the “Plant response rating, Canarygrass” value turned out to be 10 in test [2] (setting [3]), 80 in test [2] (setting [4]), 10 in test [2] (setting [5]) and 80 in test [2] (setting [6]).

Regarding `Cc1cc(-c2ccc(Br)cc2)nn1-c1c(O)cn[nH]c1=O` [Compound 78, 4-[3-(4-bromophenyl)-5-methyl-1H-pyrazol-1-yl]-5-hydroxy-3(2H)-pyridazinone], the “Plant response rating, Blackgrass” value in test [1] (setting [3]) is on record as 90; in test [1] (setting [4]) it was 100; in test [1] (setting [5]), 0; in test [1] (setting [6]), 100. The “Plant response rating, Canarygrass” value in test [2] (setting [3]) worked out at 40; in test [2] (setting [4]), 70; in test [2] (setting [5]), 0; in test [2] (setting [6]) it was 100.

As to `Cc1cc(-c2ccc(Br)cc2)nn1-c1c(OC(=O)C2CC2)cnn(C(=O)C2CC2)c1=O` [Compound 80, 5-[3-(4-bromophenyl)-5-methyl-1H-pyrazol-1-yl]-1-(cyclopropylcarbonyl)-1,6-dihydro-6-oxo-4-pyridazinyl cyclopropanecarboxylate], the “Plant response rating, Blackgrass” value was 30 in test [1] (setting [3]), 100 in test [1] (setting [4]), 70 in test [1] (setting [5]) and 100 in test [1] (setting [6]). For the same compound, the “Plant response rating, Canarygrass” value in test [2] (setting [3]) stood at 40; in test [2] (setting [4]), 100; in test [2] (setting [5]), 60; in test [2] (setting [6]), 100.

For the compound `Cc1nn(C)c(=O)c(-n2nc(-c3ccc(Br)cc3)cc2C)c1O` [Compound 81], the “Plant response rating, Blackgrass” value in test [1] (setting [3]) was determined as 100; in test [1] (setting [4]), 100; in test [1] (setting [5]), 70; in test [1] (setting [6]), 100. Further, the “Plant response rating, Canarygrass” value is recorded as 60 in test [2] (setting [3]), 100 in test [2] (setting [4]), 50 in test [2] (setting [5]) and 90 in test [2] (setting [6]).
